The species named for the test is Rattus norvegicus. Nature of the test: Vasorelaxant effect on norepinephrine induced-contraction in Wistar rat aortic rings. Format: functional, organism-based. Conditions: Aorta.

Each structure is given as a SMILES string.

Regarding `O=C1C=CC[C@H](C[C@@H](O)CCc2ccc(O)cc2)O1`, 81.4 µM corresponded to half-maximal inhibition (IC50).

What is called IC50 is the concentration that gives 50% inhibition. Read a high IC50 as weaker potency in that assay.

(Values after ChEMBL document CHEMBL1141442, “Structure elucidation of a dihydropyranone from Tapinanthus dodoneifolius” (J Nat Prod, 2007).)
